Measurements from patent US10947197B2, “Synthesis of the radiolabeled prostate-specific membrane antigen (PSMA) inhibitor [18F]DCFPyL” (The Johns Hopkins University, priority 2016, dated 2021).

How the values were obtained:
Assay type in all cases: physicochemical
[1] = Retesting at radiotracer expiry: visual inspection (appearance); settings: n = 3, specification: clear colorless solution, no visible particulate matter
Source text: Using remote handling equipment and appropriate radiation shielding (leaded glass), the vial containing the [^18F]DCFPyL product was visually inspected under bright light. The product met this acceptance specification if it was clear and colorless with no evidence of foreign matter.

[2] = Retesting at radiotracer expiry: pH by indicator paper; settings: specification 4.5-8.5; for pH, expiry: average n = 3, 360 min after EOS
Source text: A drop of the [^18F]DCFPyL final product matrix was applied to pH indicator paper (ColorPhast-Indicator strip—pH 2-9; sensitivity of 0.3 to 0.5 units, EMD Chemicals Inc., Gibbstown, N.J.). The strip color was matched to an indicator chart. The product met this acceptance specification if the pH was between 4.5 and 8.5.

[3] = Retesting at radiotracer expiry: radiochemical purity (HPLC) after storage under ambient conditions; settings: for Expiry radiochemical purity, %: ambient storage
Procedure: Using the same HPLC system described for the radiochemical identity test, an appropriate volume (50 μL) of [^18F]DCFPyL was injected at a quantity injected that avoids uncorrected dead-time loss (for main peak) in the radioactive detection system. The percent radiochemical purity of [^18F]DCFPyL was determined by dividing the radioactivity associated with the [^18F]DCFPyL peak by total activity assayed in the chromatogram multiplied by 100. The product met this acceptance specification if the radiochemical purity was greater than or equal to 95%. A sample QC chromatogram is shown in FIG. 7 (DCFPyL−RT=7.6 min., k′=8.7).

[4] = RFM synthesis (head prints REM)
[5] = large-scale RFM batch, 4.5 GBq/mL (122 mCi/mL), added sodium ascorbate, 99.7% at EOS

With `O=C(O)CC[C@H](NC(=O)N[C@@H](CCCCNC(=O)c1ccc([18F])nc1)C(=O)O)C(=O)O` [[^18F]DCFPyL, 2-(3-{1-carboxy-5-[(6-[^18F]fluoro-pyridine-3-carbonyl)-amino]-pentyl}-ureido)-pentanedioic acid] the “Appearance, 360 min after EOS” value ([1]; ELIXYS synthesis) was “Conforms”, the “Appearance, 360 min after EOS” value [1, 4] was “Conforms” and the “Appearance, 240 min after EOS” value ([1]; original synthesis) was “Conforms”. The “pH, expiry” value ([2]; ELIXYS synthesis) was 5, the “pH, expiry” value [2, 4] was 5 and the “pH, initial” value ([2]; original synthesis, average n = 3, second row headed pH, initial, beside pH, expiry) was 5. The “Expiry radiochemical purity, %” value ([3]; ELIXYS synthesis, average n = 3, expiry 360 min after EOS) was 100%, the “Expiry radiochemical purity, %” value ([3]; RFM synthesis (head prints REM), average n = 3, expiry 360 min after EOS) was 100% and the “QC acceptance specifications at the 6-hour expiry” value ([3]; highest product yield validation run, 1.6 GBq/mL (44 mCi/mL)) was “meet all QC acceptance specifications”. The “radiochemical purity 3 hours post EOS” value [3, 5] was 98.8%, the “radiochemical purity 4 hours post EOS” value [3, 5] was 98.5% and the “radiochemical purity 6 hours post EOS” value [3, 5] was 98.2%. The “radiochemical purity at the 6-hour expiry” value ([3]; large-scale RFM batch, 5.7 GBq/mL (153 mCi/mL), no sodium ascorbate, 97.6% at EOS) was 51.1% and the “Expiry radiochemical purity, %” value ([3]; original first-in-human synthesis, average n = 3, expiry 240 min after EOS) was 100%.
